Laboratory results as given in paper PMC6858373 (Scientific Reports, 2019).
Structures can show the parent of a compound that is named as a salt.

Columns and labels:
[1] = target: T1, FGF14:Nav1.6 C-tail complex (Homo sapiens, UniProt Q92915+Q9UQD0); test: Split-luciferase complementation assay (LCA) in Clone V double stable HEK293 cells; format: cell-based; settings: CC_NCI screening; for Split Luciferase Assay % Lum Set 1 / Split Luciferase Assay %Lum Set 2: LCA luminescence, normalized to on-plate 0.3% DMSO controls (n=16 per plate); for Split Luciferase Assay % Lum Set 1 / Split Luciferase Assay Z-score Set 1: biological replicate Set 1; for Split Luciferase Assay %Lum Set 2 / Split Luciferase Assay Z-score Set 2: biological replicate Set 2; for Split Luciferase Assay Z-score Set 1 / Split Luciferase Assay Z-score Set 2: LCA, normalized to on-plate 0.3% DMSO controls; for Split Luciferase Assay %Lum Avg: average of Set 1 and Set 2, normalized to 0.3% DMSO controls
T1 construct: polymerase chain reaction (PCR) amplification of the FGF14 open reading frame (nt 1–855); C-terminal fragment of Nav1.6 (amino acids 1763–1976) fused with CD4ΔC-tail (amino acids 1–395); expressed in transfected cells

[2] = target: full-length P. pyralis luciferase (Photinus pyralis, UniProt P08659, K549A/L550V/N119G/N50D/S548I); format: cell-based; settings: CC_NCI screening, normalized to on-plate 0.3% DMSO controls; for Luciferase Assay % Lum: full-length luciferase counter-screen luminescence; for Luciferase Assay Z-score: full-length luciferase counter-screen
[3] = test system: Clone V cells; settings: human, 16 h, 30 µM
[4] = test system: Clone V cells; test: CellTiter Blue (CTB) cell viability counter-screen; settings: CC_NCI screening; CTB cell viability fluorescence; normalized to on-plate 0.3% DMSO controls

full-length P. pyralis luciferase, sequence (P08659 whole entry N50D/N119G/S548I/K549A/L550V, looked up): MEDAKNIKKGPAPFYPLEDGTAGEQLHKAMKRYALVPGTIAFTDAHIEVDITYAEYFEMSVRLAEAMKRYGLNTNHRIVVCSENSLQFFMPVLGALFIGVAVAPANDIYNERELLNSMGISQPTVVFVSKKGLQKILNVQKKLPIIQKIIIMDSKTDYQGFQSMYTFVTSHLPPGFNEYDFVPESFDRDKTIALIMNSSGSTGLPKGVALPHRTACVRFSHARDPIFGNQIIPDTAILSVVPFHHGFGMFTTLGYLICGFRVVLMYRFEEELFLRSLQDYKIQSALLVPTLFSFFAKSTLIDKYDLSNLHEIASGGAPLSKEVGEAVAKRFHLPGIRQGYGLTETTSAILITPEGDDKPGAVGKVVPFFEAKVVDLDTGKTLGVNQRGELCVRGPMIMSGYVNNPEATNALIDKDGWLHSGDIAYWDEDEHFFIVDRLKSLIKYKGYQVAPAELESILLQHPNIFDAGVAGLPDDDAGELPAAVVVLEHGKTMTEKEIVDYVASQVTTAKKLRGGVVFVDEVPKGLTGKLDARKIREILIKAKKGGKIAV
T1 sequence (Q92915 1-252 isoform Q92915-2): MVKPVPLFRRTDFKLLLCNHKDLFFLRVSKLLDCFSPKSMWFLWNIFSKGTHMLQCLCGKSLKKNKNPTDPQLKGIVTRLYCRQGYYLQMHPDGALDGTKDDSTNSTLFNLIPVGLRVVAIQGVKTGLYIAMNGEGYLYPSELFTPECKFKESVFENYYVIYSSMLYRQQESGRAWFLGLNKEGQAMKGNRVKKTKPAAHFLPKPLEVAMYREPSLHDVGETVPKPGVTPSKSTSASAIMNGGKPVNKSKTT
T1 sequence (Q9UQD0 1763-1976 limits assumed): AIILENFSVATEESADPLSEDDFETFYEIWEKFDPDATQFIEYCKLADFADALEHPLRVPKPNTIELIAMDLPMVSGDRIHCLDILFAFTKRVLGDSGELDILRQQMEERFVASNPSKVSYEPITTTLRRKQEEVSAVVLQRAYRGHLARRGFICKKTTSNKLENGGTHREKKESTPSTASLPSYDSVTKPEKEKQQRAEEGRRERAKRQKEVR

SMILES | Split Luciferase Assay % Lum Set 1 [1] [%] | Split Luciferase Assay %Lum Set 2 [1] [%] | Split Luciferase Assay Z-score Set 1 [1] | Split Luciferase Assay Z-score Set 2 [1] | Split Luciferase Assay %Lum Avg [1] [%] | Luciferase Assay % Lum [2] [%] | Luciferase Assay Z-score [2] | Toxicity Assay Z-score [3] | Toxicity Assay % Fluor [4] [%]
Clc1ccc(Nc2nnc(Cc3ccncc3)c3ccccc23)cc1 [VATALANIB] | 64.47 | 69.70 | -2.87 | -2.47 | 67.08 | 78.45 | -2.76 | -1.79 | 87.19
CC[C@@]1(O)C(=O)OCc2c1cc1n(c2=O)Cc2cc3c(CN(C)C)c(O)ccc3nc2-1 [Topotecan hydrochloride] | 57.94 | 58.26 | -3.40 | -3.40 | 58.10 | 88.71 | -1.45 | -0.96 | 93.13
C[C@]12CC[C@H](O)CC1=CC[C@@H]1[C@@H]2CC[C@]2(C)C(c3cccnc3)=CC[C@@H]12 [Abiraterone] | 115.56 | 148.76 | 1.26 | 3.97 | 132.16 | 85.19 | -1.90 | -2.19 | 84.37
CNC(=O)c1ccccc1Sc1ccc2c(/C=C/c3ccccn3)n[nH]c2c1 [AXITINIB] | 107.95 | 91.55 | 0.64 | -0.69 | 99.75 | 40.56 | -7.61 | -1.18 | 91.58
CNCc1ccc(-c2[nH]c3cc(F)cc4c3c2CCNC4=O)cc1 [AG014699] | 65.55 | 67.62 | -2.78 | -2.63 | 66.59 | 82.53 | -2.24 | -0.48 | 96.59
O=C(/C=C/c1cccc(S(=O)(=O)Nc2ccccc2)c1)NO [PXD101] | 105.78 | 106.11 | 0.47 | 0.50 | 105.94 | 87.87 | -1.55 | -0.54 | 96.16
COC1=CC(c2cc3ccccc3[nH]2)=N/C1=C\c1[nH]c(C)cc1C [OBATOCLAX] | 59.03 | 61.38 | -3.31 | -3.14 | 60.20 | 78.33 | -2.78 | -1.76 | 87.39
